Reference: patent US5670510A, “Pyridyl substituted spirodienes for the treatment of inflammation” (G. D. Searle & Co., priority 1996, dated 1997)

Key:
[1] = tested on: COX I; settings: read-out: COX I ID50; arachidonic acid 10 μM; pH 8.0; pre-incubated 10-20 minutes
Description: Recombinant baculoviruses were isolated by transfecting 4 μg of baculovirus transfer vector DNA into SF9 insect cells ([…]) along with 200 ng of linearized baculovirus plasmid DNA by the calcium phosphate method. […] Exp. Station Bull. 1555 (1987). Recombinant viruses were purified by three rounds of plaque purification and high titer (10E7-10E8 pfu/ml) stocks of virus were prepared. For large scale production, SF9 insect cells were infected in 10 liter fermentors (0.5×10^6 /ml) with the recombinant baculovirus stock such that the multiplicity of infection was 0.1. After 72 hours the cells were centrifuged and the cell pellet homogenized in Tris/Sucrose (50 mM: 25%, pH 8.0) containing 1% 3-[(3-cholamidopropyl)dimethylammonio]-1-propanesulfonate (CHAPS). The homogenate was centrifuged at 10,000×G for 30 minutes, and the resultant supernatant was stored at -80° C. before being assayed for COX activity.
COX activity was assayed as PGE2 formed/μg protein/time using an ELISA to detect the prostaglandin released. CHAPS-solubilized insect cell membranes containing the appropriate COX enzyme were incubated in a potassium phosphate buffer (50 mM, pH 8.0) containing epinephrine, phenol, and heme with the addition of arachidonic acid (10 μM). […] The PGE2 formed was measured by standard ELISA technology (Cayman Chemical).

[2] = tested on: carrageenan-induced hyperalgesic foot withdrawal; test: Rat Carrageenan-induced Analgesia Test; format: in vivo, Male Sprague-Dawley rats; settings: oral, inhibition of hyperalgesic foot withdrawal 3 h after carrageenan
Description: Rat Carrageenan-induced Analgesia Test
The rat carrageenan analgesia test was performed with materials, reagents and procedures essentially as described by Hargreaves, et al. (Pain, 32, 77 (1988)). Male Sprague-Dawley rats were treated as previously described for the Carrageenan Foot Pad Edema test. Three hours after the injection of the carrageenan, the rats were placed in a special plexiglass container with a transparent floor having a high intensity lamp as a radiant heat source, positionable under the floor. After an initial twenty minute period, thermal stimulation was begun on either the injected foot or on the contralateral uninjected foot. A photoelectric cell turned off the lamp and timer when light was interrupted by paw withdrawal. The time until the rat withdraws its foot was then measured. The withdrawal latency in seconds was determined for the control and drug-treated groups, and percent inhibition of the hyperalgesic foot withdrawal determined.

[3] = tested on: carrageenan-induced foot edema; test: Rat Carrageenan Foot Pad Edema Test; format: in vivo, Male Sprague-Dawley rats; settings: oral, 3 h after carrageenan injection
Description: Rat Carrageenan Foot Pad Edema Test
The carrageenan foot edema test was performed with materials, reagents and procedures essentially as described by Winter, et al. (Proc. Soc. Exp. Biol. Med., 11, 544 (1962)). Male Sprague-Dawley rats were selected in each group so that the average body weight was as close as possible. Rats were fasted with free access to water for over sixteen hours prior to the test. The rats were dosed orally (1 mL) with compounds suspended in vehicle containing 0.5% methylcellulose and 0.025% surfactant, or with vehicle alone. One hour later a subplantar injection of 0.1 mL of 1% solution of carrageenan/sterile 0.9% saline was administered and the volume of the injected foot was measured with a displacement plethysmometer connected to a pressure transducer with a digital indicator. Three hours after the injection of the carrageenan, the volume of the foot was again measured. The average foot swelling in a group of drug-treated animals was compared with that of a group of placebo-treated animals and the percentage inhibition of edema was determined (Ottertess and Bliven, Laboratory Models for Testing NSAIDs, in Non-steroidal Anti-inflammatory Drugs, (J. Lombardino, ed. 1985)).

[4] = tested on: cyclooxygenase II; settings: literature: Meade et al; Futaki et al; cited from earlier work
[5] = literature: Futaki et al; cited from earlier work

SMILES | IC50 [1] [nM] | ANALGESIA % Inhibition @ 10 mg/kg body weight [2] [%] | RAT PAW EDEMA % Inhibition @ 30 mg/kg body weight [3] [%] | inhibition of COX II enzyme [4] | gastric side effects [5]
CS(=O)(=O)c1ccc(C2=CC3(C=C2c2ccc(F)cc2)CC3)cc1 [Example 1, 5-(4-Fluorophenyl)-6-[4-(methylsulfonyl)phenyl]spiro[2.4]hepta-4,6-diene] | 1300 | 94 | 49 |  | 
CS(=O)(=O)Nc1ccc([N+](=O)[O-])cc1OC1CCCCC1 [N-(2-cyclohexyloxy-4-nitrophenyl)methanesulfonamide] |  |  |  | inhibits cyclooxygenase II | lacks gastric side effects
COc1ccc2cc(CC(=O)O)ccc2c1 [6-methoxy-2-napthylacetic acid] |  |  |  | selectively inhibit the COX II enzyme | 
